Assay results as given in ChEMBL document CHEMBL1124045, “Synthesis and antiviral evaluation of carbocyclic analogues of 2'-azido- and 2'-amino-2'-deoxycytidine” (1988).
Active and inactive are the calls of the source. The calls are words filed in the database; no cut-off is given here.

Columns and labels:
Human alphaherpesvirus 1 [1] = assay: Antiviral activity in vitro against Herpes simplex virus type 1 (HSV-1); NA is not active uM; format: functional, organism-based
Human alphaherpesvirus 1 [2] = assay: Antiviral activity in vitro against Herpes simplex virus type 1 (HSV-1); format: functional; conditions: read-out: ED50 (the source's name)

[N-]=[N+]=N[C@@H]1C(n2ccc(N)nc2=O)CC(CO)[C@@H]1O (some centres not stated)
ED50 (Human alphaherpesvirus 1 [1]): inactive

Nc1ccn(C2CC(CO)[C@H](O)[C@@H]2N)c(=O)n1 (some centres not stated)
EC50 (Human alphaherpesvirus 1 [2]): 50 µM
